Measured values as given in patent US12312346B2, “Pyridopyrimidine compounds and methods of their use” (Tufts Medical Center, Inc., priority 2018, dated 2025).
Entries after “also recorded” stand apart in the source; their conditions may differ.

Assays:
[1] = test system: human leukemia cell line PEER (with WT Notch); test: Cell cycle (PI staining, S-G2-M cells), PEER; format: cell-based
Method: FIG. 3A Representative cell cycle profiles of human leukemia cell line PEER (with WT Notch) treated with a vehicle (V) (for palbociclib (PD) or compound GD), PD (0.5 μM), or compound GD at 0.05, 0.5, and 5 μM for 6 days.
FIG. 3B is a histogram summarizing the cell cycle distribution of the PEER cell line in FIG. 3A. Data shown are mean±S.D. (n=6); *P<0.05 vs its vehicle controls, t-test.
FIG. 3C is a chart showing the percentage of S-G2-M cells in FIG. 3B. […]
(§1) Table 2: Experimental Procedures: sensitivity to CDK6 kinase activity inhibition was tested by incubating different cell lines in the presence of CDK6 inhibitor GD007/PBS for either 24 hours for detecting the status of pRB-780 phosphorylation, or 5 days for determining the effect of GD007 on cell proliferation. (1) By immunoblotting (WB), we will detect phospho-pRB-S^780, one of the substrates of CDK6 kinase; (2) By using FACS analysis, we will stain treated cells with Propidium Iodide (PI), a commonly used fluorescent intercalator, to measure the subpopulation of cell cycle to reveal any impact of CDK6 inhibition on cell proliferation; (3) cell numbers will be counted using hemocytometer.

[2] = test system: phosphorylated pRB at SER-780 in U87 cells; test: Immunoblot of phosphorylated pRB (SER-780), U87; format: cell-based, human
Method: FIG. 5C is an image of a representative immunoblot showing the levels of phosphorylated pRB at SER-780 in U87 cells following treatment of these cells with a vehicle, PD, or compound GD for 24 hours. Tubulin was used as loading control.
as §1

[3] = test system: CDK6^−/− SVFs (KO-SVFs); test: Cell number, KO-SVFs; format: cell-based, mouse; conditions: 6 days; GD 0.1-10 μM
Method: FIG. 7B is a bar graph showing the cell numbers of KO-SVFs treated with LEE (10 μM) or compound GD at 0.1, 0.5, 1.0, 5.0, and 10 μM for 6 days. Data shown are mean±S.D. (n=6); *P<0.05 vs its vehicle control, t-test.
(§2) HCl salt of 6-acetyl-5-methyl-2-((4-(piperazin-1-ylmethyl)thiazol-2-yl)amino)pyrido[2,3-d]pyrimidin-7(8H)-one (Compound GD) prepared in Example 1 was examined for its inhibitory activity in cancer cell lines and WT and CDK6^−/− mouse embryonic fibroblasts (MEFs) and stromal vascular fractions (SVFs). MEFs and SVFs are enriched with mesenchymal stem cells (MSC) and pre-adipocytes which can differentiate into a variety of cell types, including adipocytes.

[4] = test system: Prostate Cancer: DU145; test: pRB-780 immunoblot, DU145; format: cell-based; conditions: WB: P-RB-780
Method: as §1

[5] = test system: differentiated SVF cells (beige cell formation); test: Oil Red O staining of differentiated SVF cells with BAT inducers; format: cell-based; conditions: GD 5 μM, FIG. 8B
Method: FIG. 8B is an image of Oil Red O staining of differentiated SVF cells treated with a vehicle or compound GD (5 μM) in the presence of brown adipose tissue (BAT) inducers. Scale bar: 100 μM
Beige cells are associated with protection against obesity and metabolic syndrome (WO 2017/161253). Accordingly, compound GD and related compounds of the invention can be used for treating obesity and related metabolic diseases.

[6] = test system: mouse WT-MEFs; test: Cell cycle and cell number, WT-MEFs; format: cell-based
Method: FIG. 6A is a series of charts showing representative cell cycle profiles of mouse WT-MEFs treated with a vehicle (V), PD (0.5 μM), LEE (10 μM), or compound GD at 1, 5, and 10 μM for 6 days.
FIG. 6B is a histogram summarizing the cell cycle distribution in FIG. 6A. Data shown are mean±S.D. (n=6); *P<0.05 vs vehicle control, t-test.
FIG. 6C is a chart showing the percentage of S-G2-M cells in FIG. 6B.
FIG. 6D is a bar graph summarizing the cell number of WT-MEFs treated with PD (0.5 μM), LEE (10 μM), or compound GD at varying doses for 6 days. Data shown are mean±S.D. (n=6); *P<0.05 vs vehicle control, t-test.
as §2

[7] = test system: A549 (lung cancer cells) xenograft tumors; test: A549 xenograft mouse model; format: in vivo; conditions: female Nod/Scid mice
Method: A549 cells (3×10^5/each side) were inoculated ectopically in female Nod/Scid mice. One week after inoculation, tumor bearing mice were treated with GD at 200 mg/kg/day or PBS by oral gavage for 21 days. Data shown are mean±S.D. (n=8 for each group), *p<0.05, t-test, GD vs. PBS.
FIG. 10B is a graph showing body weight of two groups of mice during the observation time. Body weights shown are mean±S.D. (n=4 for each group).
We examined the therapeutic efficacy of GD against A549 (lung cancer cells) xenograft tumors. A549 cells (3×10^5 per side in 100 μl of 50% Matrigel) were inoculated ectopically in female Nod/Scid mice on both sides. When tumor sizes reached ˜50 mm^3, animals were divided into 2 groups (n=4 mice per group), and treated with PBS or GD at dose of 200 mg/kg/day over a 21-day period (Kwapisz, supra).
Tumor sizes were measured with standard calipers every day and tumor volumes were calculated using standard methods (caliper measurements are commonly collected along the longest two dimensions of the tumor x/y plane only, with the z-axis dimension assumed to be the same as the shortest dimension) (Tomayko et al., Cancer Chemother. Pharmacol. 24:148-154, 1989). Weekly body weights were measured at designed times. At the end of the experiments, all of the tumors were isolated from the mice and weighed.

[8] = test system: mouse WT SVFs; test: Cell number, WT-SVFs; format: cell-based; conditions: 6 days; GD 0.1-10 μM
Method: FIG. 7A is a bar graph showing the cell numbers of WT-SVFs treated with LEE (10 μM) or compound GD at 0.1, 0.5, 1.0, 5.0, and 10 μM for 6 days. Data shown are mean±S.D. (n=6); *P<0.05 vs its vehicle control, t-test.
as §2

For `CC(=O)c1c(C)c2cnc(Nc3nc(CN4CCNCC4)cs3)nc2[nH]c1=O` [Compound GD, 6-acetyl-5-methyl-2-((4-(piperazin-1-ylmethyl)thiazol-2-yl)amino)pyrido[2,3-d]pyrimidin-7(8H)-one], the IC50 ([1]; Homo sapiens, 144 h, PEER, 6 days, read-out: IC50 (percentage of S-G2-M cells, growth inhibition)) was about 1300 nM, the “Compound GD Efficacy” value ([1]; Leukemic cells: PEER, PI Staining, and cell number counting) was “Efficacious” and the “Compound GD Efficacy” value ([2]; Brain Tumor: U87 human primary glioblastoma cell line, WB: P-RB-780) was “Efficacious”. For the same compound, the pRB phosphorylation ([2]; glioblastoma cell line U87, 24 hours) was “inhibits pRB phosphorylation”, the “proliferation of CDK6−/− SVFs” value [3] was “little effect” and the “Compound GD Efficacy” value [4] was “No”. The beige cell formation [5] was “induced beige cell formation”, the IC50 ([6]; 144 h, mouse WT-MEF, 6 days, read-out: IC50 (proliferation, percentage of S-G2-M cells)) was about 1200 nM and the “fraction of dead cells (effect on cell viability) relative to PD” value ([6]; WT-MEFs, FIG. 6B, GD 10 μM vs PD 0.5 μM) was “smaller”. For the same compound, the “tumor weights vs PBS” value ([7]; 200 mg/kg/day for 21 days, end of experiment, FIGS. 10D-10E) was “reduced; also recorded: decreased tumor weights”, the “tumor volumes (xenograft tumor growth) vs PBS” value ([7]; 200 mg/kg/day oral gavage for 21 days, FIG. 10A) was “reduced; also recorded: suppressed xenograft tumor growth” and the “proliferation of mouse WT SVFs” value [8] was “inhibited proliferation”.
